Assays:
[1] = target: T1, purified recombinant CDC25C enzyme (MBP-CDC25C protein) (Homo sapiens, UniProt P30307); assay: Phosphatase activity of the purified recombinant CDC25C enzyme (OMFP dephosphorylation, fluorescence); format: biochemical; conditions: OMFP 500 μM, 4 hours at 30° C., three independent experiments; nested upper bounds; read-out: IC50 for the phosphatase activity of the purified recombinant CDC25-C enzyme
T1 construct: made in house
T1 sequence (P30307 1-473): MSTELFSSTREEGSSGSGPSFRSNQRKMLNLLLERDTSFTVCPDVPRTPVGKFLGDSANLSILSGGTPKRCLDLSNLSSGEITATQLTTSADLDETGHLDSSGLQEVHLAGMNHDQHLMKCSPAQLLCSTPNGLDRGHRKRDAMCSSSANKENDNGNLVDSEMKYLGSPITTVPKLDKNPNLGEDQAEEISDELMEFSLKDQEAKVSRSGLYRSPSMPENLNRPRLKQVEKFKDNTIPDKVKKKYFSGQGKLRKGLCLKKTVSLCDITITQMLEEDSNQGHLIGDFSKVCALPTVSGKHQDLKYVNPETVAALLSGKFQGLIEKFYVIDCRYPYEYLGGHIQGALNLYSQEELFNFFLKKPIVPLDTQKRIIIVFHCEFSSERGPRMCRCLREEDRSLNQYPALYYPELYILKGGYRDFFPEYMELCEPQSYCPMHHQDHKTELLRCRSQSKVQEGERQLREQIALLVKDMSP
Method: i) Determination of the Phosphatase Activity of the Purified Recombinant CDC25C Enzyme:
The phosphatase activity of the MBP-CDC25C protein is evaluated through its dephosphorylation of 3-O-methylfluorescein-phosphate (OMFP) to form 3-O-methylfluorescein (OMF), determining the fluorescence of the reaction product at 475 nm. This assay can be used to identify inhibitors of the recombinant CDC25 enzyme. The preparation of the MBP-CDC25C fusion protein is described in the PCT patent application published under the number WO 01/44467.
The reaction is performed in 384-well plates in a final volume of 50 μl. The MBP-CDC25C protein (prepared as described hereinabove) is stored in the following elution buffer: 20 mM Tris-HCl pH 7.4; 250 mM NaCl; 1 mM EDTA; 1 mM dithiothreitol (DTT); 10 mM maltose. It is diluted to a concentration of 60 μM in the following reaction buffer: 50 mM Tris-HCl pH 8.2; 50 mM NaCl; 1 mM DTT; 20% glycerol. The background noise is determined using with the buffer without adding the enzyme. The products are tested at decreasing concentrations from 40 μM. The reaction is initiated by the addition of OMFP solution to a final concentration of 500 μM (prepared immediately before use from a 12.5 mM stock solution in 100% DMSO (Sigma #M2629)). After 4 hours at 30° C. in a disposable 384-well plate, the fluorescence measured at OD 475 nm is read on a Victor^2 plate reader (EGG-Wallac). The concentration that produces 50% inhibition of the enzyme reaction is calculated from three independent experiments. Only the values that fall within the linear part of the sigmoid curve are used for the linear regression analysis.

[2] = tested on: DU 145 (human prostate carcinoma cells); assay: Anti-proliferative activity, DU 145 cells (WST1 colorimetric test); format: cell-based; conditions: DU-145, 96 h, 96 hours treatment, up to 10 μM, nested upper bounds, read-out: IC50 for proliferation of the DU 145 cell lines
Method: (§1) ii) Characterisation of Anti-Proliferative Activity:
(§2) By way of an example, the effect of treating two human cell lines MIA PaCa-2 and DU 145 with the compounds of the examples described hereinbefore will be studied. The cell lines DU 145 (human prostate carcinoma cells) and MIA PaCa-2 (human pancreatic carcinoma cells) were obtained from the American Tissue Culture Collection (Rockville, Md., USA). A 96-well plate was inoculated on day 0 with cells in 80 μl of Dulbecco's modified Eagle's medium (Gibco-Brl, Cergy-Pontoise, France) with 10% heat-inactivated foetal calf serum (Gibco-Brl, Cergy-Pontoise, France), 50,000 units/l of penicillin and 50 mg/l of streptomycin (Gibco-Brl, Cergy-Pontoise, France) and 2 mM of glutamine (Gibco-Brl, Cergy-Pontoise, France). The cells were treated on day 1 for 96 hours with increasing concentrations of each test compound up to 10 μM. At the end of this period, cell proliferation is quantified by means of a colorimetric test based on cleavage of the tetrazolium salt WST1 by the mitochondrial dehydrogenases in the viable cells, resulting in formation of formazan (Boehringer Mannheim, Meylan, France). These tests are performed in duplicate with 8 determinations per concentration tested. For each test compound, the values within the linear part of the sigmoid curve were subjected to linear regression analysis and used to estimate the IC50 inhibitory concentration. The products are solubilised in dimethylsulfoxide (DMSO) at a concentration of 10^−2 M and used in culture with a final DMSO concentration of 0.1%.

[3] = tested on: MIA PaCa-2 (human pancreatic carcinoma cells); assay: Anti-proliferative activity, MIA PaCa-2 cells (WST1 colorimetric test); format: cell-based; conditions: MIA PaCa-2, 96 h, 96 hours treatment, up to 10 μM, nested upper bounds, read-out: IC50 for proliferation of the MIA PaCa-2 cell lines
Method: as §1, §2

Row | Compound | melting point [°C] | IC50 [1] [µM] | IC50 [2] [µM] | IC50 [3] [µM]
1 | COc1c(NCCNc2cc(N3CCCC3)nc(N3CCCC3)n2)c(=O)c1=O [Example 1, 3-({2-[(2,6-dipyrrolidin-1-ylpyrimidin-4-yl)amino]ethyl}amino)-4-methoxycyclobut-3-ene-1,2-dione] | 116 to 118 | ≤ 5 |  | 
2 | O=c1c(NCCNc2cc(N3CCCC3)nc(N3CCCC3)n2)c(N2CCCCC2)c1=O [Example 2, 3-({2-[(2,6-dipyrrolidin-1-ylpyrimidin-4-yl)amino]ethyl}amino)-4-piperidin-1-ylcyclobut-3-ene-1,2-dione] | > 250 | ≤ 5 |  | 
3 | CCCCNc1c(NCCNc2cc(N3CCCC3)nc(N3CCCC3)n2)c(=O)c1=O [Example 3, 3-(butylamino)-4-({2-[(2,6-dipyrrolidin-1-ylpyrimidin-4-yl)amino]ethyl}amino)cyclobut-3-ene-1,2-dione] | 246 to 248 | ≤ 1 |  | 
4 | O=c1c(NCCNc2cc(N3CCCC3)nc(N3CCCC3)n2)c(N2CCOCC2)c1=O [Example 4, 3-({2-[(2,6-dipyrrolidin-1-ylpyrimidin-4-yl)amino]ethyl}amino)-4-morpholin-4-ylcyclobut-3-ene-1,2-dione] | 242 to 244 | ≤ 5 |  | 
5 | COc1c(NCCN(C)CCNc2cc(N3CCCC3)nc(N3CCCC3)n2)c(=O)c1=O [Example 6] | 132 to 134 | ≤ 5 |  | 
6 | CN(CCNc1cc(N2CCCC2)nc(N2CCCC2)n1)CCNc1c(O)c(=O)c1=O [Example 7, 3-({2-[{2-[(2,6-dipyrrolidin-1-ylpyrimidin-4-yl)amino]ethyl}(methyl)amino]ethyl}amino)-4-hydroxycyclobut-3-ene-1,2-dione] |  | ≤ 5 |  | 
7 | O=C(O)/C=C\C(=O)O.O=c1c(NCCNc2cc(N3CCCC3)nc(N3CCCC3)n2)c(Nc2ccc(Cl)cc2)c1=O [Example 9d, 3-[(4-chlorophenyl)amino]-4-({2-[(2,6-dipyrrolidin-1-ylpyrimidin-4-yl)amino]ethyl}amino)cyclobut-3-ene-1,2-dione maleate] | 248 to 250 |  |  | 
8 | O=c1c(NCCNc2cc(N3CCCC3)nc(N3CCCC3)n2)c(Nc2ccc(-c3ccccc3)cc2)c1=O [Example 11, 3-(biphenyl-4-ylamino)-4-({2-[(2,6-dipyrrolidin-1-ylpyrimidin-4-yl)amino]ethyl}amino)cyclobut-3-ene-1,2-dione] |  | ≤ 5 | ≤ 10 | 
9 | O=c1c(NCCNc2cc(N3CCCC3)nc(N3CCCC3)n2)c(Nc2cccc(-c3nnn[nH]3)c2)c1=O [Example 12, 3-({2-[(2,6-dipyrrolidin-1-ylpyrimidin-4-yl)amino]ethyl}amino)-4-{[3-(1H-tetrazol-5-yl)phenyl]amino}cyclobut-3-ene-1,2-dione] |  | ≤ 5 |  | 
10 | CC(=O)Nc1ccc(Nc2c(NCCNc3cc(N4CCCC4)nc(N4CCCC4)n3)c(=O)c2=O)cc1 [Example 13, N-(4-{[2-({2-[(2,6-dipyrrolidin-1-ylpyrimidin-4-yl)amino]ethyl}amino)-3,4-dioxocyclobut-1-en-1-yl]amino}phenyl)acetamide] | 263 to 265 | ≤ 5 |  | 
11 | COc1cc(Nc2c(NCCNc3cc(N4CCCC4)nc(N4CCCC4)n3)c(=O)c2=O)cc(OC)c1OC [Example 14, 3-({2-[(2,6-dipyrrolidin-1-ylpyrimidin-4-yl)amino]ethyl}amino)-4-[(3,4,5-trimethoxyphenyl)amino]cyclobut-3-ene-1,2-dione] | 154 to 156 | ≤ 5 |  | ≤ 10
12 | O=c1c(NCCNc2cc(N3CCCC3)nc(N3CCCC3)n2)c(Nc2ccccc2Cl)c1=O [Example 16, 3-[(2-chlorophenyl)amino]-4-({2-[(2,6-dipyrrolidin-1-ylpyrimidin-4-yl)amino]ethyl}amino)cyclobut-3-ene-1,2-dione] | 179 to 181 | ≤ 1 |  | ≤ 10
13 | O=c1c(NCCNc2cc(N3CCCC3)nc(N3CCCC3)n2)c(Nc2ccccc2)c1=O [Example 35, 3-anilino-4-({2-[(2,6-dipyrrolidin-1-ylpyrimidin-4-yl)amino]ethyl}amino)cyclobut-3-ene-1,2-dione] |  | ≤ 1 |  | ≤ 10

Next, values leading:

Row | melting point [°C] | IC50 [1] [µM] | IC50 [2] [µM] | IC50 [3] [µM] | Compound
14 | > 370 |  |  |  | Cl.O=c1c(NCCNc2cc(N3CCCC3)nc(N3CCCC3)n2)c(Nc2ccc(Cl)cc2)c1=O
15 | 251 to 253 | ≤ 1 |  |  | O=c1c(NCCNc2cc(N3CCCC3)nc(N3CCCC3)n2)c(Nc2ccc(Cl)cc2)c1=O [Example 9, 3-[(4-chlorophenyl)amino]-4-({2-[(2,6-dipyrrolidin-1-ylpyrimidin-4-yl)amino]ethyl}amino)cyclobut-3-ene-1,2-dione]
16 | 263 to 266 |  |  |  | O=S(=O)(O)O.O=c1c(NCCNc2cc(N3CCCC3)nc(N3CCCC3)n2)c(Nc2ccc(Cl)cc2)c1=O [Example 9b, 3-[(4-chlorophenyl)amino]-4-({2-[(2,6-dipyrrolidin-1-ylpyrimidin-4-yl)amino]ethyl}amino)cyclobut-3-ene-1,2-dione sulfate]
17 | 275 to 278 |  |  |  | O=P(O)(O)O.O=c1c(NCCNc2cc(N3CCCC3)nc(N3CCCC3)n2)c(Nc2ccc(Cl)cc2)c1=O [Example 9c, 3-[(4-chlorophenyl)amino]-4-({2-[(2,6-dipyrrolidin-1-ylpyrimidin-4-yl)amino]ethyl}amino)cyclobut-3-ene-1,2-dione phosphate]
18 | > 260 | ≤ 5 |  | ≤ 10 | CNCc1ccc(Nc2c(NCCNc3cc(N4CCCC4)nc(N4CCCC4)n3)c(=O)c2=O)cc1.Cl [Example 22, 3-({2-[(2,6-dipyrrolidin-1-ylpyrimidin-4-yl)amino]ethyl}amino)-4-({4-[(methylamino)methyl]phenyl}amino)cyclobut-3-ene-1,2-dione hydrochloride]
19 | > 260 | ≤ 15 |  |  | O=c1c(NCCNc2cc(N3CCCC3)nc(N3CCCC3)n2)c(Nc2ccc(O)cc2)c1=O [Example 27, 3-({2-[(2,6-dipyrrolidin-1-ylpyrimidin-4-yl)amino]ethyl}amino)-4-[(4-hydroxyphenyl)amino]cyclobut-3-ene-1,2-dione]
20 | 224 to 226 | ≤ 5 |  | ≤ 10 | Cl.NCc1ccc(Nc2c(NCCNc3cc(N4CCCC4)nc(N4CCCC4)n3)c(=O)c2=O)cc1 [Example 28, 3-{[4-(aminomethyl)phenyl]amino}-4-({2-[(2,6-dipyrrolidin-1-ylpyrimidin-4-yl)amino]ethyl}amino)cyclobut-3-ene-1,2-dione hydrochloride]
21 | 250 to 252 | ≤ 5 |  |  | Cl.NCCc1ccc(Nc2c(NCCNc3cc(N4CCCC4)nc(N4CCCC4)n3)c(=O)c2=O)cc1 [Example 30, 3-{[4-(2-aminoethyl)phenyl]amino}-4-({2-[(2,6-dipyrrolidin-1-ylpyrimidin-4-yl)amino]ethyl}amino)cyclobut-3-ene-1,2-dione hydrochloride]

From patent US20100173910A1, “TRIAMINOPYRIMIDINE CYCLOBUTENEDIONE DERIVATIVES USED AS PHOSPHATASE CDC25 INHIBITORS” (IPDRN PHSTMS D.S.S., priority 2007, published 2010)
